Results as given in patent publication US20160257927A1, “THREE-DIMENSIONAL CELL CULTURE USING NANOFIBER SLURRIES AND NANO-STRUCTURED SUBSTRATES” (UCL BUSINESS PLC, priority 2015, published 2016).

Test system: Lung cancer A549 cells
Experiment: Chemosensitivity to anticancer drugs in 2D TCP and 3D scaffold (MTS CellTiter 96 cell viability)
Type: cell-based, human
Details: 48 hrs treatment; 2D TCP vs 3D CA/Rayon, 1:9 scaffold; 25000 cells seeded
Experimental: FIG. 18. Chemosensitivity of cancer cell lines in response to 48 hrs treatment with anticancer drugs when cultured in 2D Tissue Culture Plates (TCP) and 3D CA/Rayon, 1:9 scaffold.
25000 cells of tested cell lines were seeded in 2D TCP and 3D scaffold. Cells were treated with anticancer drugs for 48 hrs and then cell viability was measured using MTS CellTiter 96® Aqueous One Solution assay (Promega).

O=c1[nH]cc(F)c(=O)[nH]1 [5-fluorouracil]
chemosensitivity (cell viability) of A549 cells: more sensitive to 5-fluorouracil and doxorubicin in 2D TCP than in 3D scaffolds

COc1cccc2c1C(=O)c1c(O)c3c(c(O)c1C2=O)C[C@@](O)(C(=O)CO)C[C@@H]3O[C@H]1C[C@H](N)[C@H](O)[C@H](C)O1 [doxorubicin]
chemosensitivity (cell viability) of A549 cells: more sensitive to 5-fluorouracil and doxorubicin in 2D TCP than in 3D scaffolds
